Where two headings read alike, the source gives them in different places.
Experiments:
[1] = test system: ddY mice; assay: Acute toxicity; assay type: in vivo; conditions: mouse, oral, 600 mg/kg, observed for 2 weeks
Description: EXPERIMENT 9: ACUTE TOXICITY

[2] = test system: platelet aggregation (platelet rich plasma); assay: Inhibitory activity on platelet aggregation; assay type: cell-based, Japanese native white domestic rabbits; conditions: Oryctolagus cuniculus, rabbit PRP, 37° C.
Method: EXPERIMENT 8: INHIBITORY ACTIVITY ON PLATELET AGGREGATION
Blood of Japanese native white domestic rabbits was taken into a plastic centrifugal tube added with 1/10 in volume of 3.8% sodium citrate solution, and then, platelet rich plasma (PRP) containing 5 to 6×10^8 /ml platelets was obtained by centrifugation for 10 minutes. under 120×G. To 450 μl of the PRP, 25 μl of a solution containing the test drug (Compound 109) dissolved at a desired concentration was added.

[3] = target: T1, 5-lipoxygenase (Cavia porcellus, UniProt A0A286X958); assay: Inhibitory activity on 5-lipoxygenase; assay type: biochemical, guinea pigs; conditions: 5-HETE generation, 20 μM 14C-arachidonic acid, pH 7.4, 37° C., 10 minutes
T1 construct: crude enzyme fraction prepared from peritoneal exudated cells of guinea pigs; endogenous in cells; host or cells: guinea pig peritoneal exudate cells (induced by intraperitoneal casein), crude enzyme fraction
T1 sequence (A0A286X958 1-674): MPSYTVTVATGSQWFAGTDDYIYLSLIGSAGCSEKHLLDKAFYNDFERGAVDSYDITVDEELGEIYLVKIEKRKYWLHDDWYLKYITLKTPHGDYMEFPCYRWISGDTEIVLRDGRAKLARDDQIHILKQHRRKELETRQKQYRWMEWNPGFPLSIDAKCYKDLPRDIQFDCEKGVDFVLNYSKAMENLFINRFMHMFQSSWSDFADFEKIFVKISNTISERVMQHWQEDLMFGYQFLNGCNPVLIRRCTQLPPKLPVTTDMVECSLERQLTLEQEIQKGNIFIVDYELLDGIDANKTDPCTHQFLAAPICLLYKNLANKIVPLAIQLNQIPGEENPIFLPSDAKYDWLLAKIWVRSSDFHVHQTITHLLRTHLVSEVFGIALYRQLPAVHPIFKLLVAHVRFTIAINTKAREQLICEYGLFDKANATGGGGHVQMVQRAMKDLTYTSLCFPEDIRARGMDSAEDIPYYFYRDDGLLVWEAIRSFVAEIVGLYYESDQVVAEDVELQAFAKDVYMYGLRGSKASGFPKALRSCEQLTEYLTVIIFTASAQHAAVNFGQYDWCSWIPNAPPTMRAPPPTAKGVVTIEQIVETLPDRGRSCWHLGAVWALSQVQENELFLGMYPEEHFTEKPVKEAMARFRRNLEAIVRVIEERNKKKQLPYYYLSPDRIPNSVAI
Method: EXPERIMENT 2: INHIBITORY ACTIVITY ON 5-LIPOXYGENASE
5-Lipoxygenase activity was determined according to the method described by Ochi et al., J. Biol. Chem.,258, p. 5754, 1983 using a crude enzyme fraction prepared from peritoneal exudated cells of guinea pigs which were induced by intraperitoneal injection of 2% case in solution. A solution of a test drug was mixed with a reaction solution (2mM ATP, 1 mM glutathione,and the enzyme fraction in 50 mM phosphate buffer, PH 7.4) and the mixture was pre-incubated at 37° C. for 5 minutes. Calcium chloride (1 mM) and 20 μM^14 C-arachidonic acid were added to the mixture, and then the mixture was subjected to a reaction at 37° C. for 10 minutes. After the completion of the reaction, the product was immediately extracted, dissolved in chloroform/methanol (2:1), and developed by thin-layer chromatography. Radioactivity of the 5-hydroxyeicosatetraenoic acid (5-HETE) fraction was measured using a liquid scintillation counter. Inhibitory rate of each drug-treated group against 5-HETE generation was obtained in comparison with the solvent-treated control, and IC50 was calculated according to the probit method.

[4] = test system: auricle edema induced by oxazolone; assay: Effect on auricle edema induced by oxazolone (delayed allergy); assay type: in vivo, ICR mice; conditions: mouse, oral, 10 mg/kg × 2 (30 minutes before, 6 hours after), 24 hours
Method: EXPERIMENT 6: EFFECT ON AURICLE EDEMA INDUCED BY OXAZOLONE (DELAYED ALLERGY)
[…]. The mice were sensitized by the application of 0.1 ml of 0.5% oxazolone in ethanol to shaven abdominal skin. Five days later, inflammation was induced by applying 10 μl of 0.5% oxazolone in acetone to front and back surfaces Of the right auricle. After 24 hours, the thicknesses of the left and right auricles were measured by a dial gauge, and the rate of edema of the right auricle was calculated in comparison with the left auricle (normal). A test drug was suspended in 0.5% CMC--Na and orally administered twice to each mouse , i.e., 30 minutes before and 6 hours after the inflammation-inducing treatment. Inhibitory rate of each drug-treated group against edema was calculated in comparison with the solvent-treated control.

[5] = test system: paw edema induced by carageenin; assay: Inhibitory activity on paw edema induced by carageenin; assay type: in vivo, Wistar rats; conditions: rat, oral, 10 mg/kg, 3 hours after carageenin
Method: EXPERIMENT 4: INHIBITORY ACTIVITY ON PAW EDEMA INDUCED BY CARAGEENIN
Wistar rats (body weight: 110-130 g) starved overnight were orally administered with a test drug suspended in 0.5% CMC-Na, and after one hour, 0.1 ml of 1% carageenin solution (picnin-A, Zushi Kagaku) was subcutaneously injected into the right hind leg paw of each rat. Three hours later, the volume of the paw was determined by means of a plethysmometer (Model 7150, Ugo Basile Co.,Ltd.) and the rate of edema was evaluated in comparison with the volume of the paw before the carageenin injection as 100%. Inhibitory rate of each drug-treated group against edema formation was calculated in comparison with the solvent-treated control.

With `CCc1ccc(-c2cc(-c3ccc(OC)cc3)c(-c3ccc(OC)cc3)o2)n1CC(=O)O` [Compound 109, 2,3-di-(4-methoxyphenyl)-5-(1-carboxymethyl-5-ethyl-2-pyrrolyl)furan] the “Dead Mice/Total Mice” value [1] was 0/5, the IC50 ([2]; arachidonic acid (250 μM), read-out: IC50 against platelet aggregation induced by arachidonic acid) was 1500 nM and the IC50 ([2]; collagen (5 μg/ml), read-out: IC50 against platelet aggregation induced by collagen) was 13300 nM. The IC50 [3] was 850 nM, the “Inhibition on Edema (%)” value [4] was 46.8% and the “Inhibition on Edema (%)” value [5] was 49.5%.

— US5321041A, “Diphenylpyrrolylfuran derivatives” (Nihon Iyakuhin Kogyo Co., Ltd., priority 1992, dated 1994)
